Data reported in US7138361B2, “Herbicidal heterocycles” (E. I. du Pont de Nemours and Company, priority 2000, dated 2006).

Key:
Type in all cases: in vivo
Nightshade [1] = test: Test C preemergence
Sunflower = test: Test C preemergence; conditions: Rate 125 g/ha; scale 0 to 100, 0 no effect, 100 complete control
[2] = tested on: Surinam grass (Brachiaria decumbens); test: Test C preemergence
Outline: (§1)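 Visual 0–100 rating vs controls (0 = no effect, 100 = complete control) at 12–14 d, greenhouse. Compounds in non-phytotoxic solvent + surfactant; pre: sprayed after seeding; post: 1–4-leaf plants, 2–18 cm.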

[3] = tested on: bermudagrass (Cynodon dactylon); test: Test C preemergence
Outline: as §1

[4] = tested on: cocklebur (Xanthium strumarium); test: Test C preemergence
Outline: as §1

[5] = tested on: common ragweed (Ambrosia elatior); test: Test C preemergence
Outline: as §1

corn (Zea mays) = test: Test C preemergence
Outline: as §1

[6] = tested on: crabgrass (Digitaria sanguinalis); test: Test C preemergence
Outline: as §1

[7] = tested on: giant foxtail (Setaria faberii); test: Test C preemergence
Outline: as §1

[8] = tested on: goosegrass (Eleusine indica); test: Test C preemergence
Outline: as §1

[9] = tested on: johnsongrass (Sorghum halepense); test: Test C preemergence
Outline: as §1

kochia (Kochia scoparia) = test: Test C preemergence
Outline: as §1

[10] = tested on: morningglory (Ipomoea hederacea); test: Test C preemergence
Outline: as §1

[11] = tested on: pigweed (Amaranthus retroflexus); test: Test C preemergence
Outline: as §1

soybean (Glycine max) = test: Test C preemergence
Outline: as §1

[12] = tested on: velvetleaf (Abutilon theophrasti); test: Test C preemergence
Outline: as §1

[13] = tested on: woolly cupgrass (Eriochloa villosa); test: Test C preemergence
Outline: as §1

[14] = tested on: yellow nutsedge (Cyperus esculentus); test: Test C preemergence
Outline: as §1

[15] = tested on: barnyardgrass (Echinochloa crus-galli); test: Test C flooded paddy test; conditions: for Plant response rating, Barnyardgrass: scale 0 to 100 (0 no effect, 100 complete control)
Outline: (§2)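 2-leaf-stage plants, flooded paddy; treated; greenhouse 12–14 days; compared with controls by eye; rated 0–100 (0 none, 100 complete control).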

[16] = tested on: duck salad (Heteranthera limosa); test: Test C flooded paddy test; conditions: for Plant response rating, Ducksalad: scale 0 to 100 (0 no effect, 100 complete control)
Outline: as §2

rice (Oryza saliva) = test: Test C flooded paddy test; conditions: for Plant response rating, Rice: scale 0 to 100 (0 no effect, 100 complete control)
Outline: as §2

[17] = tested on: smallflower flatsedge (Cyperus difformis); test: Test C flooded paddy test; conditions: for Plant response rating, Flatsedge: scale 0 to 100 (0 no effect, 100 complete control)
Outline: as §2

Nightshade [18] = test: Test C preemergence; conditions: Rate 500 g/ha, visual evaluation after 12 to 14 days
[19] = Rate 125 g/ha, scale 0 to 100, 0 no effect, 100 complete control
[20] = preemergence, Rate 62 g/ha, scale 0 to 100
[21] = preemergence, Rate 500 g/ha, visual evaluation after 12 to 14 days
[22] = preemergence, Rate 250 g/ha, scale 0 to 100, 0 no effect, 100 complete control
[23] = Flooded Paddy, Rate 500 g/ha, scale 0 to 100, 0 no effect, 100 complete control
[24] = flooded paddy test, Rate 125 g/ha
[25] = flooded paddy test, Rate 250 g/ha
[26] = flooded paddy test, Rate 62 g/ha, visually evaluated after 12 to 14 days, 0 = no effect, 100 = complete control

With `CCC(C)c1ccn(C2CCN(c3ccc(F)c(C(F)(F)F)c3)C2=O)n1` (stereo not drawn) [Compound 145] as the molecule, how does the “Plant response rating, Nightshade” value (Nightshade [1]; Rate 62 g/ha, scale 0 to 100) read?
The value was 0.

What about the “Plant response rating, Nightshade” value (Nightshade [1]; [19]) of the same molecule?
Its value is 10.

And the “Plant response rating, Nightshade” value (Nightshade [1]; Rate 250 g/ha, scale 0 to 100, 0 no effect, 100 complete control)?
The value was 20.

And the “Plant response rating, Sunflower” value (Sunflower)?
Its value is 0.

And the “Plant response rating, Surinam grass” value [2, 19]?
The value was 50.

What about the “Plant response rating, Surinam grass” value [2, 20] of the same molecule?
Its value is 0.

What about the “Plant response rating (0 to 100), Surinam grass” value [2, 21] of the same molecule?
Its value is 100.

What about the “Plant response rating, Surinam grass” value [2, 22] of the same molecule?
Its value is 90.

What about the “Plant response rating, Bermudagrass” value [3, 19] of the same molecule?
The value was 100.

What about the “Plant response rating, Bermudagrass” value [3, 20] of the same molecule?
Its value is 60.

What about the “Plant response rating (0 to 100 where 0 is no effect and 100 is complete control), Bermudagrass” value [3, 21] of the same molecule?
Its value is 100.

What about the “Plant response rating, Bermudagrass” value [3, 22] of the same molecule?
The value was 100.

What about the “Plant response rating, Cocklebur” value [4, 19] of the same molecule?
The value was 20.

What about the “Plant response rating, Cocklebur” value [4, 20] of the same molecule?
The value was 0.

And the “Plant response rating (0 to 100), Cocklebur” value [4, 21]?
The value was 60.

And the “Plant response rating, Cocklebur” value [4, 22]?
The value was 50.

What about the “Plant response rating, Ragweed, Common” value [5, 19] of the same molecule?
The value was 0.

And the “Plant response rating, Ragweed, Common” value [5, 20]?
The value was 0.

And the “Plant response rating (0 to 100), Ragweed, Common” value [5, 21]?
Its value is 20.

What about the “Plant response rating, Ragweed, Common” value [5, 22] of the same molecule?
Its value is 0.

And the “Plant response rating, Corn” value (corn (Zea mays); [19])?
The value was 20.

What about the “Plant response rating, Corn” value (corn (Zea mays); [20]) of the same molecule?
Its value is 0.

What about the “Plant response rating (0 to 100), Corn” value (corn (Zea mays); [21]) of the same molecule?
The value was 40.

And the “Plant response rating, Corn” value (corn (Zea mays); [22])?
The value was 40.

What about the “Plant response rating, Crabgrass” value [6, 19] of the same molecule?
The value was 100.

And the “Plant response rating, Crabgrass” value [6, 20]?
Its value is 100.

And the “Plant response rating (0 to 100), Crabgrass” value [6, 21]?
Its value is 100.

What about the “Plant response rating, Crabgrass” value [6, 22] of the same molecule?
The value was 100.

And the “Plant response rating, Foxtail, Giant” value [7, 19]?
Its value is 100.

What about the “Plant response rating, Foxtail, Giant” value [7, 20] of the same molecule?
Its value is 100.

And the “Plant response rating (0 to 100), Foxtail, Giant” value [7, 21]?
The value was 100.

And the “Plant response rating, Foxtail, Giant” value [7, 22]?
The value was 100.

What about the “Plant response rating, Goosegrass” value [8, 19] of the same molecule?
Its value is 100.

And the “Plant response rating, Goosegrass” value [8, 20]?
The value was 90.

What about the “Plant response rating (0 to 100), Goosegrass” value [8, 21] of the same molecule?
Its value is 100.

What about the “Plant response rating, Goosegrass” value [8, 22] of the same molecule?
Its value is 100.

And the “Plant response rating, Johnsongrass” value [9, 19]?
The value was 10.

What about the “Plant response rating, Johnsongrass” value [9, 20] of the same molecule?
Its value is 0.

What about the “Plant response rating (0 to 100), Johnsongrass” value [9, 21] of the same molecule?
The value was 90.

What about the “Plant response rating, Johnsongrass” value [9, 22] of the same molecule?
The value was 20.

And the “Plant response rating, Kochia” value (kochia (Kochia scoparia); [19])?
The value was 100.

And the “Plant response rating, Kochia” value (kochia (Kochia scoparia); [20])?
Its value is 100.

And the “Plant response rating (0 to 100), Kochia” value (kochia (Kochia scoparia); [21])?
Its value is 100.

What about the “Plant response rating, Kochia” value (kochia (Kochia scoparia); [22]) of the same molecule?
Its value is 100.

What about the “Plant response rating, Morningglory” value [10, 19] of the same molecule?
The value was 100.

What about the “Plant response rating, Morningglory” value [10, 20] of the same molecule?
The value was 0.

What about the “Plant response rating, Morningglory” value [10, 22] of the same molecule?
The value was 100.

And the “Plant response rating, Pigweed” value [11, 19]?
The value was 100.

And the “Plant response rating, Pigweed” value [11, 20]?
The value was 100.

What about the “Plant response rating (0 to 100), Pigweed” value [11, 21] of the same molecule?
Its value is 100.

What about the “Plant response rating, Pigweed” value [11, 22] of the same molecule?
The value was 100.

And the “Plant response rating, Soybean” value (soybean (Glycine max); [19])?
The value was 30.

And the “Plant response rating, Soybean” value (soybean (Glycine max); [20])?
Its value is 20.

And the “Plant response rating (0 to 100), Soybean” value (soybean (Glycine max); [21])?
Its value is 60.

What about the “Plant response rating, Soybean” value (soybean (Glycine max); [22]) of the same molecule?
Its value is 30.

What about the “Plant response rating, Velvetleaf” value [12, 19] of the same molecule?
Its value is 0.

And the “Plant response rating, Velvetleaf” value [12, 20]?
Its value is 0.

What about the “Plant response rating (0 to 100), Velvetleaf” value [12, 21] of the same molecule?
Its value is 20.

What about the “Plant response rating, Velvetleaf” value [12, 22] of the same molecule?
Its value is 0.

And the “Plant response rating, Cupgrass, Woolly” value [13, 19]?
The value was 100.

And the “Plant response rating, Cupgrass, Woolly” value [13, 20]?
Its value is 20.

What about the “Plant response rating (0 to 100), Cupgrass, Woolly” value [13, 21] of the same molecule?
Its value is 100.

What about the “Plant response rating, Cupgrass, Woolly” value [13, 22] of the same molecule?
Its value is 100.

And the “Plant response rating, Nutsedge” value [14, 19]?
Its value is 0.

And the “Plant response rating, Nutsedge” value [14, 20]?
Its value is 0.

And the “Plant response rating (0 to 100), Nutsedge” value [14, 21]?
The value was 0.

What about the “Plant response rating, Nutsedge” value [14, 22] of the same molecule?
The value was 0.

What about the “Barnyardgrass plant response rating” value [15, 23] of the same molecule?
The value was 100.

What about the “Plant response rating, Barnyardgrass” value [15, 24] of the same molecule?
Its value is 65.

And the “Plant response rating, Barnyardgrass” value [15, 25]?
The value was 85.

What about the “Plant response rating (scale 0 to 100), Barnyardgrass” value [15, 26] of the same molecule?
The value was 30.

What about the “Ducksalad plant response rating” value [16, 23] of the same molecule?
The value was 80.

And the “Plant response rating, Ducksalad” value [16, 24]?
The value was 25.

And the “Plant response rating, Ducksalad” value [16, 25]?
The value was 80.

What about the “Plant response rating (scale 0 to 100), Ducksalad” value [16, 26] of the same molecule?
Its value is 20.

And the “Rice plant response rating” value (rice (Oryza saliva); [23])?
Its value is 60.

And the “Plant response rating, Rice” value (rice (Oryza saliva); [24])?
The value was 0.

And the “Plant response rating, Rice” value (rice (Oryza saliva); [25])?
The value was 20.

And the “Plant response rating (scale 0 to 100), Rice” value (rice (Oryza saliva); [26])?
Its value is 0.

And the “Flatsedge plant response rating” value [17, 23]?
Its value is 95.

And the “Plant response rating, Flatsedge” value [17, 24]?
Its value is 80.

And the “Plant response rating, Flatsedge” value [17, 25]?
Its value is 95.

What about the “Plant response rating (scale 0 to 100), Flatsedge” value [17, 26] of the same molecule?
Its value is 40.

What about the “Plant response rating (0 to 100), Nightshade” value (Nightshade [18]) of the same molecule?
Its value is 90.
